Experimental data published in publication PMC10249896, “AI-Assisted chemical probe discovery for the understudied Calcium-Calmodulin Dependent Kinase, PNCK” (PLOS Computational Biology, 2023).
Several values for one entry are separate records, joined by “and”; a condition that tells them apart may be missing. Equal values may be shown once.

Target: T1, PNCK Nano-luciferase fusion (Homo sapiens, UniProt Q6P2M8)
T1 construct: host or cells: HEK293
Experiment: NanoBRET Target Engagement Intracellular Kinase Assay, cell-based PNCK binding screen and dose response in HEK293 cells
Details: for IC50: 8-point concentration-response; for IC50 / inhibition at 1 µM / inhibition at 10 µM: HEK293; for inhibition at 1 µM: compound 1uM, read-out: Avg. Normalized % Inhibition, 1uM, Nanobret; for inhibition at 1 µM / inhibition at 10 µM: K10 tracer 1uM, normalized to staurosporine and DMSO; for inhibition at 10 µM: compound 10uM, read-out: Avg. Normalized % Inhibition, 10uM, Nanobret; for cell permeability: stated on testing in NanoBRET assay; for NanoBRET binding, result in words: cell-based screen / comparison with parent hit
Procedure: The NanoBRET Target Engagement Intracellular Kinase Assay (Promega N2520) is a cell-based binding screen which reads loss of BRET signal as a result of target binding. A PNCK Nano-luciferase fusion vector plasmid was generated custom by Promega. The K-10 tracer was used for the assay, as determined by Promega. The plasmid was maxiprepped by Genewiz for use in all future assays. HEK293 cells were seeded in a T175 flask in DMEM with 10% FBS. The following day, cells were counted to 10,000, resuspended in assay media (Optimem with no phenol red, 1% FBS). Plasmid and transfection reagent (Fugene HD, Promega E2311) were added to the mixture and cells were seeded in a white 96-well plate. After 20–24 hours, media was changed, and the assay proceeded according to protocol. K10 tracer was added at the recommended concentration of 1uM while compounds were initially screened at both 10uM and 1uM. Cells incubated with compound at 37 degrees Celsius for a maximum of 2 hours before the plate was read using Clariostar Plus. Data was normalized to Staurosporine and DMSO controls. For compounds selected for further analysis, dose response curves were generated using the same testing protocol but at 8 different concentrations: 24uM, 12uM, 6uM, 3uM, 1.5uM, .75uM 0.375uM and 0.1875uM. UM195 was tested with concentrations from 12uM to 0.09375. Similarly, compounds from the analog by catalog analysis were tested at concentrations from 24uM to 0.1875uM.
Data analysis of ADP Kinase Glo results were carried out per the manufacturer’s instructions. Results were represented as a percent decrease in activity. Data was normalized to staurosporine (positive control) as 100% decrease and DMSO (negative control) as a 0% decrease. Data for NanoBRET was analyzed by dividing the acceptor by the donor emission and […] to obtain raw millibret units (mBU). Background was subtracted using control emission averages. Data was normalized to positive and negative controls of staurosporine and DMSO. Concentration-response curves were plotted in GraphPad Prism 8 and IC50s were extrapolated using non-linear fit with concentrations transformed to logarithmic scale. Baseline was held constant and represented the average mBU of staurosporine controls while the top was constrained to represent the average mBU of DMSO controls. Error bars on dose-response curves represent standard deviations.

T1 sequence (Q6P2M8 whole entry, the tested form may be a part): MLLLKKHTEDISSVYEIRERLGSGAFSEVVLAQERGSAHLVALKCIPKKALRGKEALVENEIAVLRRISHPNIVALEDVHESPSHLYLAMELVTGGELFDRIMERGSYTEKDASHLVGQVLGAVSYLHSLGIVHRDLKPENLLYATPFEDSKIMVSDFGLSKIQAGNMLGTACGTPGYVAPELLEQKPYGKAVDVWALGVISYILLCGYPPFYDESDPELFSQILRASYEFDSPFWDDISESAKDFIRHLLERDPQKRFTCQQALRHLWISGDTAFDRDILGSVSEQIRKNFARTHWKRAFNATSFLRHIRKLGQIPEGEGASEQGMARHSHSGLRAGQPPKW

Compound	inhibition at 1 µM	inhibition at 10 µM	other results
N#Cc1cnc(Sc2nnc(-c3cccc4ccccc34)o2)cn1 [UM_195, 5-[5-(naphthalen-1-yl)-1,3,4-oxadiazol-2-yl]sulfanylpyrazine-2-carbonitrile]	22.1%	100%	IC50: 3.36 µM; Dose-Response Curve Data (NanoBRET signal, replicates) (Concentration 1.20E-05 M): 5.32 and 5.59 and 5.20; Dose-Response Curve Data (NanoBRET signal, replicates) (Concentration 1.50E-06 M): 7.80 and 7.94 and 7.90; Dose-Response Curve Data (NanoBRET signal, replicates) (Concentration 1.88E-07 M): 9.08 and 9.29 and 8.92; Dose-Response Curve Data (NanoBRET signal, replicates) (Concentration 3.00E-06 M): 7.45 and 6.56 and 7.25; Dose-Response Curve Data (NanoBRET signal, replicates) (Concentration 3.75E-07 M): 9.32 and 8.97 and 9.18; Dose-Response Curve Data (NanoBRET signal, replicates) (Concentration 6.00E-06 M): 5.79 and 6.12 (2×); Dose-Response Curve Data (NanoBRET signal, replicates) (Concentration 7.50E-07 M): 8.84 and 8.55 and 8.27; Dose-Response Curve Data (NanoBRET signal, replicates) (Concentration 9.38E-08 M): 9.33 and 9.39 and 8.87
O=C(O)CCc1nnc(SCc2c(Cl)cccc2Cl)[nH]c1=O [UM_193]	0%	0%	cell permeability: not cell permeable
Clc1nc(CN2CCCCC2)nc2sc3c(c12)CCC3 [UM_220]	1.68%	27.1%	
CC1CCc2c(sc(NC(=O)c3ccc([N+](=O)[O-])s3)c2C(N)=O)C1 (stereo not drawn) [UM_250]	0%	0%	
c1ccc2c(c1)ccn2CCc1nc(-c2cnccn2)no1 [UM_202]	0%	21.5%	
CC1CCc2c(sc(NC(=O)c3cccs3)c2C(N)=O)C1 (stereo not drawn) [UM_255]	0%	1.24%	
COc1cccc(-c2nc3c(c(=O)[nH]2)Cc2cc(Br)ccc2O3)c1O [UM_229]	27.5%	54%	
O=C1CCCc2c1cnc1nc(N3CCCCC3)nc(O)c21 [UM_232]	1.49%	10.9%	
O=C(O)c1cccc(S(=O)(=O)Nc2nc3ccc(Cl)cc3s2)c1 [UM_203]	5.12%	22.7%	
c1ccc2c(-c3nnc(Sc4cnccn4)o3)cccc2c1 [UM_265]	21.5%	63.5%	
O=c1[nH]c(CSc2ncccn2)nc2ccc(Cl)cc12 [UM_278]	10.9%	23.6%	NanoBRET binding, result in words: did not demonstrate significantly improved binding
Cc1ccnc2nc(C(=O)OCC(=O)c3ccc(Cl)cc3Cl)nn12 [UM_198]	2.17%	22.7%	
O=C(c1c(F)cc(F)cc1F)C1CCN(C(=O)c2ccnnc2)CC1 [UM_212]	0%	49.9%	
COc1cccc(-n2nnc3c(=O)n(CC(=O)N4CCCC4)cnc32)c1 [UM_230]	21.2%	55.1%	
COc1ccc2c(O)c(C(=O)N(C)Cc3c(C)noc3C)cnc2c1 [UM_200]	0%	17.7%	
NC(=O)Nc1cccc(C(=O)Nc2cc3c(cc2Br)OCCO3)c1 [UM_222]	28%	71.1%	
O=c1[nH]c(-c2ccc(-n3cccn3)nc2)nc2sc3ccccc3c12 [UM_208]	5.94%	87.8%	
COc1ccc2[nH]c(SCc3cc(=O)n4c(C)cccc4n3)nc2c1 [UM_196]	3.82%	30.5%	
O=C1CCCN1CC(O)COc1ccc2c3c(c(=O)oc2c1)CCCCC3 (stereo not drawn) [UM_257]	15.2%	48.6%	
O=C1CCCCCN1CCc1nc(-c2cccnn2)no1 [UM_242]			cell permeability: not cell permeable

Compound	inhibition at 1 µM	inhibition at 10 µM	other results
C[C@@H]1CCc2c(sc(NC(=O)c3ccc(Cl)s3)c2C(N)=O)C1 [UM_228, (6R)-2-(5-chlorothiophene-2-amido)-6-methyl-4,5,6,7-tetrahydro-1-benzothiophene-3-carboxamide]	35.2%	97.6%	IC50: 8.32 µM; Dose-Response Curve Data (NanoBRET signal, replicates) (Concentration 1.20E-05 M): 6.59 and 6.36 and 6.71; Dose-Response Curve Data (NanoBRET signal, replicates) (Concentration 1.50E-06 M): 8.32 and 8.64 and 8.50; Dose-Response Curve Data (NanoBRET signal, replicates) (Concentration 1.88E-07 M): 8.44 and 8.73 and 8.35; Dose-Response Curve Data (NanoBRET signal, replicates) (Concentration 2.40E-05 M): 5.75 and 5.50 and 5.61; Dose-Response Curve Data (NanoBRET signal, replicates) (Concentration 3.00E-06 M): 8.33 and 8.45 and 7.70; Dose-Response Curve Data (NanoBRET signal, replicates) (Concentration 3.75E-07 M): 8.86 and 8.18 and 8.92; Dose-Response Curve Data (NanoBRET signal, replicates) (Concentration 6.00E-06 M): 7.13 and 7.60 and 7.05; Dose-Response Curve Data (NanoBRET signal, replicates) (Concentration 7.50E-07 M): 8.73 and 8.94 and 8.43
O=c1[nH]c2ccccc2n2c(SCCCn3c(=O)[nH]c4ccccc43)nnc12 [UM_273]	29%	45.5%	
COc1ccccc1N(CCC(N)=O)C(=O)COc1ccc2c(c1)CCCC2=O [UM_249]	22.8%	41.8%	
NC(=O)Cn1cnc2cc(-c3ccc(Cl)cc3)sc2c1=O [UM_219]	0.98%	31.1%	
O=c1[nH]c(CSc2ccccc2)nc2ccc(Cl)cc12 [UM_279]	5.1%	23.4%	NanoBRET binding, result in words: did not demonstrate significantly improved binding
CNC(=O)[C@@H]1C[C@@H](N)CN1C(=O)CCc1nc(-c2cccnc2)no1 [UM_244]			cell permeability: not cell permeable
Clc1nc(-c2cccnc2)nc2sc3c(c12)CCCC3 [UM_209]	5.53%	55.3%	
N#Cc1cnc(Sc2nnc(C3CCCCC3)o2)cn1 [UM_256]	2.86%	51%	
O=c1[nH]c(CSc2ccc3ccccc3n2)nc2ccccc12 [UM_281]	26.6%	54.5%	
Cn1c(=O)n(C(N)=O)c(=O)c2c1nc1n2CCCN1c1ccc(F)cc1 [UM_223]	17%	44.6%	
Cc1cc(C)n2nc(SCc3cc(=O)n4cc(Br)ccc4n3)nc2n1 [UM_201]	3.26%	30.8%	
Cc1nc2c(c(=O)[nH]1)CCN(Cc1cc3ccccc3n(C)c1=O)CC2 [UM_231]	25.9%	46.3%	
Cn1cnn(CN2CCN(c3ccc(O)cc3)CC2)c1=S [UM_199]	0%	16.9%	
Cn1cnnc1SCc1nc(N)c2c3c(sc2n1)CCCC3 [UM_214]	27.2%	62.3%	
CCOCCn1c(CN2CCN(CC)CC2)nc2c1c(O)nc(=O)n2C [UM_227]	22.4%	49.4%	
O=C(COc1ccc2c3c(c(=O)oc2c1)CCCCC3)N1CCc2ccccc21 [UM_213, 3-[2-(2,3-dihydro-1H-indol-1-yl)-2-oxoethoxy]-6H,7H,8H,9H,10H,11H-cyclohepta [c]chromen-6-one]	56.7%	91.5%	IC50: 9.49 µM; Dose-Response Curve Data (NanoBRET signal, replicates) (Concentration 1.20E-05 M): 7.35 and 7.43 (2×); Dose-Response Curve Data (NanoBRET signal, replicates) (Concentration 1.50E-06 M): 8.59 and 8.87 and 8.44; Dose-Response Curve Data (NanoBRET signal, replicates) (Concentration 1.88E-07 M): 8.66 and 8.93 and 8.52; Dose-Response Curve Data (NanoBRET signal, replicates) (Concentration 2.40E-05 M): 6.31 and 6.47 and 6.34; Dose-Response Curve Data (NanoBRET signal, replicates) (Concentration 3.00E-06 M): 8.12 and 8.73 and 8.41; Dose-Response Curve Data (NanoBRET signal, replicates) (Concentration 3.75E-07 M): 8.92 and 8.51 and 8.71; Dose-Response Curve Data (NanoBRET signal, replicates) (Concentration 6.00E-06 M): 8.04 and 8.33 and 8.32; Dose-Response Curve Data (NanoBRET signal, replicates) (Concentration 7.50E-07 M): 8.68 and 8.62 and 8.88
O=C(O)c1cccc(NS(=O)(=O)/C=C/c2ccc(Cl)cc2)c1 [UM_235]	4.02%	10.3%	
O=c1[nH]c(CSc2ccc3ccccc3n2)nc2ccc(Cl)cc12 [UM_210, 6-chloro-2-[(quinolin-2-ylsulfanyl)methyl]-3,4-dihydroquinazolin-4-one]	41.2%	98.5%	IC50: 8.09 µM; Dose-Response Curve Data (NanoBRET signal, replicates) (Concentration 1.20E-05 M): 7.35 and 5.53 and 7.51 and 6.90; Dose-Response Curve Data (NanoBRET signal, replicates) (Concentration 1.50E-06 M): 8.14 and 8.22 and 8.79 and 8.09; Dose-Response Curve Data (NanoBRET signal, replicates) (Concentration 1.88E-07 M): 8.61 and 9.43 and 9.50 and 8.74; Dose-Response Curve Data (NanoBRET signal, replicates) (Concentration 2.40E-05 M): 4.79 and 5.28 and 5.02 and 4.59; Dose-Response Curve Data (NanoBRET signal, replicates) (Concentration 3.00E-06 M): 7.91 and 7.57 and 6.47 and 7.46; Dose-Response Curve Data (NanoBRET signal, replicates) (Concentration 3.75E-07 M): 9.79 and 9.21 and 8.99 and 8.71; Dose-Response Curve Data (NanoBRET signal, replicates) (Concentration 6.00E-06 M): 7.06 and 7.86 and 6.98 and 6.97; Dose-Response Curve Data (NanoBRET signal, replicates) (Concentration 7.50E-07 M): 8.34 and 8.97 and 8.05 and 9.09
Cc1noc2ncnc(N3CCC(n4c(C)nc5ccccc54)CC3)c12 [UM_215]	0%	19.4%	
CC1(C)CCc2c(sc(NC(=O)c3ccc(Cl)s3)c2C(N)=O)C1 [UM_260]	4.8%	31.2%	
